Data published in US7572765B2, “Conformationally constrained parathyroid hormone (PTH) analogs” (The General Hospital Corporation, priority 2001, dated 2009).
Square brackets hold non-standard residues; d marks the D form. Peptide text beside a SMILES is read from it. hArg = N=C(N)NCCCC[C@H](N)C(=O)O; Aib = CC(C)(N)C(=O)O

Legend:
human P1R = target: T1, human P1R (Homo sapiens, UniProt Q03431); assay: cAMP stimulation in HKRK-B28 cells; format: cell-based; details: basal 4.0 ± 0.1 pmole/well not subtracted
T1 construct: expressed in transfected cells; host or cells: HKRK-B28 (porcine kidney LLC-PK1, stably transfected)
T1 sequence (Q03431 27-593): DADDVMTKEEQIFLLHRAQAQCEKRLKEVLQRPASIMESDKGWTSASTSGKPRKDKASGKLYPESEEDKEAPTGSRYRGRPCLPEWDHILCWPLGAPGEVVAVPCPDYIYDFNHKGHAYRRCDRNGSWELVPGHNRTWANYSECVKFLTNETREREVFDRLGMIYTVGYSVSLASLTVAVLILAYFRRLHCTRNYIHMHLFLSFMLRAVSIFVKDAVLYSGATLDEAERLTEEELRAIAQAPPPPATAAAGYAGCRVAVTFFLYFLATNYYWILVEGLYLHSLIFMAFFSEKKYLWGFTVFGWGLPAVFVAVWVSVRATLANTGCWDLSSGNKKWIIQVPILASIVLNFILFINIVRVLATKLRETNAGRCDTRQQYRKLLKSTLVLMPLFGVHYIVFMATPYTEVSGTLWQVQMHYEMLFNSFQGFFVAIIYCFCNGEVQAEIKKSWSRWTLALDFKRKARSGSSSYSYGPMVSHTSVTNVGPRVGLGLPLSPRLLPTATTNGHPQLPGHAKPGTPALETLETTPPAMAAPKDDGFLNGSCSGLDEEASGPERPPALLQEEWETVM
Method: Cell Culture. The cell line HKRK-B28 (Takasu, H., et al., J. Bone Miner. Res. 14:11-20 (1999)) was derived from the porcine kidney cell line, LLC-PK1 by stable transfection with plasmid DNA encoding the human P1R and expresses ˜280,000 receptors per cell. These cells, as well as COS-7 cells and SaOS-2-B10 cells, were cultured at […] in T-75 flasks ([…]) in Dulbecco's modified Eagle's medium (DMEM) supplemented with fetal bovine serum (10%), penicillin G (20 units/ml), streptomycin sulfate (20 μg/ml) and amphotericin B (0.05 μg/ml) in a humidified atmosphere containing 5% CO2. Stock solutions of EGTA/trypsin and antibiotics were from GIBCO; fetal bovine serum was from Hyclone Laboratories (Logan, Utah). COS-7 cells sub-cultured in 24-well plates were transfected with plasmid DNA (200 ng per well) encoding the wild-type human P1R or truncated human P1R deleted for residues (24-181) (Shimizu, M., et al., J. Biol. Chem. 275:21836-21843 (2000)) that was purified by cesium chloride/ethidium bromide density gradient centrifugation, and FuGENE 6 transfection reagent (Roche Indianapolis Ind.) according to the manufacturer's recommended procedure. All cells, in 24-well plates, were treated with fresh media and shifted to 33° C. for 12 to 24 h prior to assay.
cAMP Stimulation. Stimulation of cells with peptide analogs was performed in 24-well plates. Cells were rinsed with 0.5 mL of binding buffer (50 mM Tris-HCI, […], 5 mM KCl, 2 mM CaCl2, 5% heat-inactivated horse serum, 0.5% fetal bovine serum, adjusted to pH 7.5 with HCl) and treated with 200 μL of cAMP assay buffer (Delbecco's modified Eagle's medium containing 2 mM 3-isobutyl-1-methylxanthine, 1 mg/mL bovine serum albumin, 35 mM Hepes-NaOH, pH 7.4) and 100 μL of binding buffer containing varying amounts of peptide analog (final volume=300 μL). The medium was removed after incubation for 30 to 60 minutes at room temperature, and the cells were frozen on dry ice, lysed with 0.5 mL 50 mM HCl, and refrozen ([…]). The cAMP content of the diluted lysate was determined by radioimmunoassay. The EC50 response values were calculated using nonlinear regression (see below).
Data Calculation. Calculations were performed using Microsoft® Excel. Nonlinear regression analyses of binding and cAMP dose-response data were performed using the four-parameter equation: yp=Min+[(Max−Min)/(1+(IC50/x)^slope)]. The Excel Solver function was utilized for parameter optimization, as described previously (Carter, P. H., et al., Endocrinology 140: 4972-4981 (1999); Bowen, W. P., and Jerman, J. C., Trends in Pharmacol. Sci. 16: 413-417 (1995)). Differences between paired data sets were statistically evaluated using a one-tailed Student's t-test, assuming unequal variances for the two sets.

[1] = Circular dichroism spectroscopy (helical content); format: physicochemical
Method: Circular Dichroism. Circular Dichroism spectra were recorded on a Jasco model 710 spectropolarimeter; peptides were analyzed at a concentration of20 μM in 50 mM sodium phosphate buffer pH 7.4, or the same buffer containing 2,2,2-trifluoroethanol at 20% (v/v). Spectroscopic scans were preformed at 20° C. and at wavelengths between […], with data recored at each 1 nM interval. The spectral bandwidth was 1.5 nM and 8 scans were accumulated and averaged for each sample. At each wavelength, the mean residue elipticity [θ×100/l×C×n); where θ is the raw elipticity value (in dimensions of millidegree), l is the sample path length, C=is the molar peptide concentration, and n is the number of residues in the peptide (Bowen, W. P., and Jerman, J. C., Trends in Pharmacol. Sci. 16: 413-417 (1995)). The helical content of each peptide was estimated by dividing [θ] observed at 222 nM for that peptide by −28,100, which is the reported [θ]222obs for a model helical decapeptide (Bowen, W. P., and Jerman, J. C., Trends in Pharmacol. Sci. 16: 413-417 (1995)).
Circular dichroism (CD) spectroscopy was used to analyze the potential effects that the Aib substitutions had on peptide secondary structure when the peptides were free in solution. Samples were analyzed in both aqueous phosphate buffer and in phosphate buffer containing 2,2,2-trifloroethanol, an organic solvent which promotes helical structure in oligopeptides, including PTH peptide fragments (Pellegrini, M., et al., J. Biol. Chem. 273:10420-10427 (1998); Gronwald, W., et al., Biol. Chem. Hoppe Seyler 377:175-186 (1996); Barden, J. A., and Kemp, B. E., Biochemistry 32:7126-7132 (1993)). In phosphate buffer, the helical content of each peptide, estimated from the elipticity observed at 222 nM, was small (≦16%); however, [Aib^1,3,M]PTH(1-14) contained nearly twice as much helix as did [M]PTH(1-14) (16% and 8.1% respectively), as did [Aib^1,3,M]PTH(1-1l), as compared to […] (13% and 7.5% respectively, Table 4). […] The higher helical contents of these two peptides were evident not only from the negative elipticities at […] and 222 nM, but also from the positive elipticities at 192 nM (FIG. 6).

| Molecule | cAMP EMax(obs.) (human P1R) [pmole/well] | also measured |
| --- | --- | --- |
| CC[C@H](C)[C@H](NC(=O)[C@H](CCC(=O)O)NC(=O)[C@H](C)NC(=O)C(C)(C)NC(=O)[C@H](C)N)C(=O)N[C@@H](CCC(N)=O)C(=O)N[C@@H](CC(C)C)C(=O)N[C@@H](CCSC)C(=O)N[C@@H](Cc1c[nH]cn1)C(=O)N[C@@H](CCC(N)=O)C(=O)N[C@@H](CCCCNC(=N)N)C(=O)N[C@@H](C)C(=O)N[C@@H](CCCCN)C(=O)N[C@@H](Cc1c[nH]c2ccccc12)C(N)=O [Aib-2] (H-A[Aib]AEIQLMHQ[hArg]AKW-NH2) | 168 ± 6 | – |
| CC[C@H](C)[C@H](NC(=O)[C@H](CCC(=O)O)NC(=O)[C@H](C)NC(=O)[C@@H](NC(=O)[C@H](C)N)C(C)C)C(=O)N[C@@H](CCC(N)=O)C(=O)NC(C)(C)C(=O)N[C@@H](CCSC)C(=O)N[C@@H](Cc1c[nH]cn1)C(=O)N[C@@H](CCC(N)=O)C(=O)N[C@@H](CCCCNC(=N)N)C(=O)N[C@@H](C)C(=O)N[C@@H](CCCCN)C(=O)N[C@@H](Cc1c[nH]c2ccccc12)C(N)=O [Aib-7] (H-AVAEIQ[Aib]MHQ[hArg]AKW-NH2) | 275 ± 8 | – |
| CC[C@H](C)[C@H](NC(=O)[C@H](CCC(=O)O)NC(=O)[C@H](C)NC(=O)[C@@H](NC(=O)[C@H](C)N)C(C)C)C(=O)N[C@@H](CCC(N)=O)C(=O)N[C@@H](CC(C)C)C(=O)N[C@@H](CCSC)C(=O)N[C@@H](Cc1c[nH]cn1)C(=O)N[C@@H](CCC(N)=O)C(=O)N[C@@H](CCCCNC(=N)N)C(=O)N[C@@H](C)C(=O)NC(C)(C)C(=O)N[C@@H](Cc1c[nH]c2ccccc12)C(N)=O [Aib-13] (H-AVAEIQLMHQ[hArg]A[Aib]W-NH2) | 259 ± 10 | – |
| CC[C@H](C)[C@H](NC(=O)[C@H](CCC(=O)O)NC(=O)[C@H](C)NC(=O)[C@@H](NC(=O)[C@H](C)N)C(C)C)C(=O)N[C@@H](CCC(N)=O)C(=O)N[C@@H](CC(C)C)C(=O)N[C@@H](CCSC)C(=O)N[C@@H](Cc1c[nH]cn1)C(=O)N[C@@H](CCC(N)=O)C(=O)N[C@@H](CCCCNC(=N)N)C(=O)N[C@@H](C)C(=O)N[C@@H](CCCCN)C(=O)NC(C)(C)C(N)=O [Aib-14] (H-AVAEIQLMHQ[hArg]AK[Aib]-NH2) | 273 ± 6 | – |
| PTH(1-11): unmodified N-terminal PTH(1-11) peptide (SVSEIQLMHNL; Parathyroid hormone; UniProt P01270 32-42, looked up, fragment) | – | [0]222obs × 10^−3, Phos. ([1]; 20 μM peptide, 50 mM phosphate buffer pH 7.4): −1.8; [0]222obs × 10^−3, Phos + TFE ([1]; 20 μM peptide, 50 mM phosphate buffer with trifluoroethanol (20%)): −8.4; helical residues (%), Phos + TFE ([1]; 50 mM phosphate buffer with trifluoroethanol (20%), from elipticity at 222 nM): 30%; helical residues (%), Phos. ([1]; 50 mM phosphate buffer, from elipticity at 222 nM): 6.5% |

Continued, in another order:

| cAMP EMax(obs.) (human P1R) [pmole/well] | Molecule | also measured |
| --- | --- | --- |
| 221 ± 10 | CC[C@H](C)[C@H](NC(=O)C(C)(C)NC(=O)[C@H](C)NC(=O)[C@@H](NC(=O)[C@H](C)N)C(C)C)C(=O)N[C@@H](CCC(N)=O)C(=O)N[C@@H](CC(C)C)C(=O)N[C@@H](CCSC)C(=O)N[C@@H](Cc1c[nH]cn1)C(=O)N[C@@H](CCC(N)=O)C(=O)N[C@@H](CCCCNC(=N)N)C(=O)N[C@@H](C)C(=O)N[C@@H](CCCCN)C(=O)N[C@@H](Cc1c[nH]c2ccccc12)C(N)=O [Aib-4] (H-AVA[Aib]IQLMHQ[hArg]AKW-NH2) | – |
| 116 ± 12 | CC[C@H](C)[C@H](NC(=O)[C@H](CCC(=O)O)NC(=O)[C@H](C)NC(=O)[C@@H](NC(=O)[C@H](C)N)C(C)C)C(=O)NC(C)(C)C(=O)N[C@@H](CC(C)C)C(=O)N[C@@H](CCSC)C(=O)N[C@@H](Cc1c[nH]cn1)C(=O)N[C@@H](CCC(N)=O)C(=O)N[C@@H](CCCCNC(=N)N)C(=O)N[C@@H](C)C(=O)N[C@@H](CCCCN)C(=O)N[C@@H](Cc1c[nH]c2ccccc12)C(N)=O [Aib-6] (H-AVAEI[Aib]LMHQ[hArg]AKW-NH2) | – |
| 214 ± 22 | CC[C@H](C)[C@H](NC(=O)[C@H](CCC(=O)O)NC(=O)[C@H](C)NC(=O)[C@@H](NC(=O)[C@H](C)N)C(C)C)C(=O)N[C@@H](CCC(N)=O)C(=O)N[C@@H](CC(C)C)C(=O)N[C@@H](CCSC)C(=O)N[C@@H](Cc1c[nH]cn1)C(=O)NC(C)(C)C(=O)N[C@@H](CCCCNC(=N)N)C(=O)N[C@@H](C)C(=O)N[C@@H](CCCCN)C(=O)N[C@@H](Cc1c[nH]c2ccccc12)C(N)=O [Aib-10] (H-AVAEIQLMH[Aib][hArg]AKW-NH2) | – |
| 263 ± 9 | CC[C@H](C)[C@H](NC(=O)[C@H](CCC(=O)O)NC(=O)[C@H](C)NC(=O)[C@@H](NC(=O)[C@H](C)N)C(C)C)C(=O)N[C@@H](CCC(N)=O)C(=O)N[C@@H](CC(C)C)C(=O)N[C@@H](CCSC)C(=O)N[C@@H](Cc1c[nH]cn1)C(=O)N[C@@H](CCC(N)=O)C(=O)N[C@@H](CCCCNC(=N)N)C(=O)NC(C)(C)C(=O)N[C@@H](CCCCN)C(=O)N[C@@H](Cc1c[nH]c2ccccc12)C(N)=O [Aib-12] (H-AVAEIQLMHQ[hArg][Aib]KW-NH2) | – |
